Experimental data from ChEMBL document CHEMBL5096149, “Recent Update on Targeting c-MYC G-Quadruplexes by Small Molecules for Anticancer Therapeutics” (J Med Chem, 2021).

Key:
[1] = system: Quadruplex DNA; assay: Binding affinity to c-MYC G-quadruplex (Mer22) DNA (unknown origin) assessed as first order binding constant by isothermal titration calorimetry method; type: nucleic-acid assay
[2] = system: Quadruplex DNA; assay: Binding affinity to c-MYC G-quadruplex (Mer22) DNA (unknown origin) assessed as second order binding constant by isothermal titration calorimetry method; type: nucleic-acid assay
[3] = system: Quadruplex DNA; assay: Binding affinity to c-MYC G-quadruplex (Mer22) DNA (unknown origin) assessed as binding rate constant by surface plasmon resonance analysis; type: nucleic-acid assay
[4] = system: Quadruplex DNA; assay: Thermal stabilization of c-MYC G-quadruplex (Mer22) DNA (unknown origin) assessed as change in melting temperature at 1:3 ratio by UV-Vis spectroscopy; type: nucleic-acid assay
[5] = system: Quadruplex DNA; assay: Thermal stabilization of c-MYC G-quadruplex (Mer22) DNA (unknown origin) assessed as change in melting temperature at 1:3 ratio by FRET melting assay; type: nucleic-acid assay
[6] = system: Quadruplex DNA; assay: Binding affinity to c-MYC G-quadruplex (Pu22) DNA (unknown origin) assessed as association constant by fluorescence spectroscopy; type: nucleic-acid assay
[7] = system: Quadruplex DNA; assay: Binding affinity to c-MYC G-quadruplex (Pu22) DNA (unknown origin) assessed as association rate constant by isothermal titration calorimetry method; type: nucleic-acid assay
[8] = system: Quadruplex DNA; assay: Binding affinity to c-MYC G-quadruplex DNA (unknown origin) assessed as association constant by fluorescence spectroscopy; type: nucleic-acid assay
[9] = system: Quadruplex DNA; assay: Thermal stabilization of c-MYC G-quadruplex DNA (unknown origin) assessed as change in melting temperature at 1:5 ratio by circular dichroism spectroscopy; type: nucleic-acid assay
[10] = system: Quadruplex DNA; assay: Binding affinity to c-MYC G-quadruplex DNA (unknown origin) assessed as first order binding constant by electrospray ionization mass spectrometry; type: nucleic-acid assay
[11] = system: Quadruplex DNA; assay: Binding affinity to c-MYC G-quadruplex DNA (unknown origin) assessed as second order binding constant by electrospray ionization mass spectrometry; type: nucleic-acid assay
[12] = system: Quadruplex DNA; assay: Thermal stabilization of c-MYC G-quadruplex DNA (unknown origin) assessed as change in melting temperature at 1:2.5 ratio by FRET melting assay; type: nucleic-acid assay
[13] = system: Quadruplex DNA; assay: Thermal stabilization of c-MYC G-quadruplex DNA (unknown origin) assessed as change in melting temperature at 1:5 ratio by FRET melting assay; type: nucleic-acid assay
[14] = system: HepG2; assay: Cytotoxicity against human HepG2 cells assessed as reduction in cell viability incubated for 24 hrs by MTT assay; type: functional, cell-based; conditions: HepG2, 24 h
[15] = system: MCF7; assay: Cytotoxicity against human MCF7 cells assessed as reduction in cell viability incubated for 24 hrs by MTT assay; type: functional, cell-based; conditions: MCF7, 24 h
[16] = system: HCT-116; assay: Cytotoxicity against human HCT-116 cells assessed as reduction in cell viability incubated for 24 hrs by MTT assay; type: functional, cell-based; conditions: HCT-116, 24 h
[17] = Cytotoxicity against mouse C2C12 cells assessed as reduction in cell viability incubated for 24 hrs by MTT assay; type: toxicity, cell-based
[18] = system: Quadruplex DNA; assay: Binding affinity to c-MYC G-quadruplex (Pu22) DNA (unknown origin) assessed as association rate constant by surface plasmon resonance analysis; type: nucleic-acid assay
[19] = system: Quadruplex DNA; assay: Thermal stabilization of c-MYC G-quadruplex (Pu22) DNA (unknown origin) assessed as change in melting temperature at 1:1 ratio by circular dichroism spectroscopy; type: nucleic-acid assay
[20] = system: L-363; assay: Cytotoxicity against human L-363 cells assessed as inhibition of cell viability incubated for 72 hrs by MTS assay; type: functional, cell-based; conditions: L-363, 72 h
[21] = system: RPMI-8226; assay: Cytotoxicity against human RPMI-8226 cells assessed as inhibition of cell viability incubated for 72 hrs by MTS assay; type: functional, cell-based; conditions: RPMI-8226, 72 h
[22] = Cytotoxicity against human ARD cells assessed as inhibition of cell viability incubated for 72 hrs by MTS assay; type: functional, cell-based
[23] = Cytotoxicity against human JIM1 cells assessed as inhibition of cell viability incubated for 72 hrs by MTS assay; type: functional, cell-based; conditions: JIM1, 72 h
[24] = Cytotoxicity against human KMM-1 cells assessed as inhibition of cell viability incubated for 72 hrs by MTS assay; type: functional, cell-based; conditions: KMM-1, 72 h
[25] = system: LP-1; assay: Cytotoxicity against human LP-1 cells assessed as inhibition of cell viability incubated for 72 hrs by MTS assay; type: functional, cell-based; conditions: LP-1, 72 h
[26] = system: KMS-12-PE; assay: Cytotoxicity against human KMS-12-PE cells assessed as inhibition of cell viability incubated for 72 hrs by MTS assay; type: functional, cell-based
[27] = Cytotoxicity against human KMS-27 cells assessed as inhibition of cell viability incubated for 72 hrs by MTS assay; type: functional, cell-based; conditions: KMS-27, 72 h
[28] = system: AMO1; assay: Cytotoxicity against human AMO1 cells assessed as inhibition of cell viability incubated for 72 hrs by MTS assay; type: functional, cell-based; conditions: AMO1, 72 h
[29] = Cytotoxicity against human MOLP8 cells assessed as inhibition of cell viability incubated for 72 hrs by MTS assay; type: functional, cell-based; conditions: MOLP-8, 72 h
[30] = system: Quadruplex DNA; assay: Thermal stabilization of c-MYC G-quadruplex DNA (unknown origin) assessed as change in melting temperature at 1:1 ratio in absence of K+ by FRET melting assay; type: nucleic-acid assay
[31] = system: Quadruplex DNA; assay: Thermal stabilization of c-MYC G-quadruplex DNA (unknown origin) assessed as change in melting temperature at 1:1 ratio in presence of K+ by FRET melting assay; type: nucleic-acid assay
[32] = system: HeLa; assay: Antiproliferative activity against human HeLa cells assessed as inhibition of cell growth by XTT assay; type: functional, cell-based
[33] = Antiproliferative activity against human Kidney epithelial cells assessed as inhibition of cell growth by XTT assay; type: toxicity, cell-based
[34] = system: Quadruplex DNA; assay: Binding affinity to c-MYC G-quadruplex DNA (unknown origin) assessed as association rate constant by fluorometric titration method; type: nucleic-acid assay
[35] = system: Quadruplex DNA; assay: Thermal stabilization of c-MYC G-quadruplex DNA (unknown origin) assessed as change in melting temperature at 1:10 ratio by FRET melting assay; type: nucleic-acid assay
[36] = system: Quadruplex DNA; assay: Binding affinity to c-MYC G-quadruplex DNA (unknown origin) assessed as association rate constant by isothermal titration calorimetry method; type: nucleic-acid assay
[37] = system: Quadruplex DNA; assay: Binding affinity to c-MYC G-quadruplex DNA (unknown origin) assessed as association rate constant by UV-Vis spectroscopy; type: nucleic-acid assay
[38] = system: SMMC-7721; assay: Antitumor activity against human SMMC-7721 cells xenografted in mouse model assessed as tumor growth inhibition at 20 mg/kg,ip administrated for 3 weeks; type: functional; conditions: SMMC-7721, 504 h

## NCC1=C2CNC(=O)C3=CC(CN)=C(CNC(=O)c4cc(CN)c(o4)CNC(=O)C4=CC(CN)=C(CNC(=O)C(=C1)O2)O4)O3
[1]
  K: 2.4 10^7/M
[2]
  K: 1.86 10^6/M
[3]
  K: 2.87 10^7/M
[4]
  ΔTm: 18 °C
[5]
  ΔTm: 18 °C

## C(=N\Nc1nc(Nc2ccccc2)nc(Nc2ccccc2)n1)/c1c2ccccc2cc2ccccc12
[6]
  Ka: 8.33 10^5/M
[7]
  Ka: 9.53 10^4/M

## Nc1nc(-c2ccccc2)c2c(n1)-c1cc(OCCN3CCCC3)ccc1C2=O
[8]
  Ka: 1 10^5/M
[9]
  ΔTm: 7.8 °C

## O=c1c2ccc3c4c(N5CCCCC5)cc5c(=O)n(CCN6CCCCC6)c(=O)c6cc7c(CCN8CCCCC8)cc8cc(c(=O)n1CCN1CCCCC1)c2c3c8c7c4c56
[10]
  K: 1.2 10^6/M
[11]
  K: 6.3 10^5/M
[12]
  ΔTm: 16.4 °C

## CN(C)CCCNC(=O)c1ccc(-n2cc(-c3ccc4c(c3)c3cc(-c5cn(-c6ccc(C(=O)NCCCN(C)C)cc6)nn5)ccc3n4CCCN(C)C)nn2)cc1
[8]
  Ka: 3.3 10^6/M
[13]
  ΔTm: 22.7 °C
[14]
  IC50: 4.3 µM
[15]
  IC50: 6.8 µM
[16]
  IC50: 8.2 µM
[17]
  IC50 at 24 h: > 45 µM

## Cc1ccc(NC(=O)c2c(C)oc3ccc(O)c(CN4CCCCCC4)c23)cc1
[18]
  Ka: 2.2 10^5/M
[19]
  ΔTm: 2.1 °C
[20]
  IC50: 5.8 µM
[21]
  IC50: 15.9 µM
[22]
  IC50: 12.9 µM
[23]
  IC50: 14.1 µM
[24]
  IC50: 15.6 µM
[25]
  IC50: 8.3 µM
[26]
  IC50: 6.5 µM
[27]
  IC50: 9.6 µM
[28]
  IC50: 11.3 µM
[29]
  IC50: 8.3 µM

## CN(C)CCCNC(=O)c1ccc(-n2cc(-c3ccc4[nH]c5ccc(-c6cn(-c7ccc(C(=O)NCCCN(C)C)cc7)nn6)cc5c4c3)nn2)cc1
[30]
  ΔTm: 23.5 °C
[31]
  ΔTm: 24 °C

## CN(CCCCn1cc(CCCC(=O)OC[C@H]2O[C@@H](n3cnc4c(=O)[nH]c(N)nc43)[C@@H]3OC(C)(C)O[C@@H]32)nn1)Cc1c2ccccc2c(CN(C)CCCCn2cc(CCCC(=O)OC[C@H]3O[C@@H](n4cnc5c(=O)[nH]c(N)nc54)[C@@H]4OC(C)(C)O[C@@H]43)nn2)c2ccccc12
[8]
  Ka: 2.56 10^6/M
[13]
  ΔTm: 8.8 °C
[32]
  IC50: 6.2 µM
[33]
  IC50: > 50 µM

## c1cc2ccc3ccc4nc3c2nc1CNCCCCCCNC4
[34]
  Ka: 1.4 10^5/M
[35]
  ΔTm: 11.3 °C
[9]
  ΔTm: 19.3 °C

## C[n+]1cccc(-c2cc3c4cc(-c5ccc[n+](C)c5)c5nc(C(F)(F)C(F)(F)C(F)(F)F)nc6c(-c7ccc[n+](C)c7)cc(c7cc(-c8ccc[n+](C)c8)c8nc(C(F)(F)C(F)(F)C(F)(F)F)nc2c8c37)c4c56)c1
[8]
  Ka: 2.31 10^7/M
[36]
  Ka: 1.3 10^7/M
[37]
  Ka: 2.38 10^7/M

## CN(C)CCCNCCC(=O)Nc1ccc(C(=O)Nc2cc(Cl)ccc2-c2nc(NCCCN(C)C)c3ccccc3n2)cc1
[38]
  inhibition in vivo at 20 mg/kg: 58.2%
